In publication PMC3713518, “Structure-based discovery of fiber-binding compounds that reduce the cytotoxicity of amyloid beta” (eLife, 2013):

Experiments:
Aβ1–42 fibers = target: T1, Aβ1–42 fibers (Homo sapiens, UniProt P05067); assay: 1H NMR of compound with fibers; conditions: PBS pH 7.4, 283 K; binding to full-length Abeta fibers
T1 construct: gene APP; residues 1-42 of Abeta from APP polyprotein; E. coli His-(NANP)19-TEV fusion, tag cut by TEV; fibrils grown 2 months
Source text: 1H NMR of compound with fibers on Aβ1–42 fibers

KLVFFA (Aβ16–21) fibers = target: T2, KLVFFA (Aβ16–21) fibers (Homo sapiens, UniProt P05067); assay: 1H NMR titration of compound with fibers; assay type: binding
T2 construct: gene APP; fibrils grown 3 months; segment of Abeta cut from APP polyprotein

T1 sequence (P05067 672-713): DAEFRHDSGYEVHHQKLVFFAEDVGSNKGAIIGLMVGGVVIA

O=S(=O)(O)c1cc(S(=O)(=O)O)c2c(N=Nc3ccccc3)c(O)ccc2c1 [orange G]
Binding to Aβ fiber / NMR peak reduction (%) (Aβ1–42 fibers): 6% | Kd (KLVFFA (Aβ16–21) fibers): 43 ± 21 µM

Cc1ccc(O)c(N=Nc2c(O)cc(S(=O)(=O)O)c3ccccc23)c1 [BAF8]
Binding to Aβ fiber / NMR peak reduction (%) (Aβ1–42 fibers): 13% | Kd (KLVFFA (Aβ16–21) fibers): 24 ± 5 µM

O=C1OC2(c3ccccc31)c1cc(Br)c(O)c(Br)c1Oc1c2cc(Br)c(O)c1Br [BAF1]
Binding to Aβ fiber / NMR peak reduction (%) (Aβ1–42 fibers): 8% | Kd (KLVFFA (Aβ16–21) fibers): 12 ± 7 µM
